Assay results: patent US20090197929A1, “Azolylmethyloxiranes, Their Use for Controlling Phytopathogenic Fungi and Agents Containing Said Compounds” (BASF SE, priority 2006, published 2009)

Legend:
Puccinia recondita = assay: Protective activity against Puccinia recondita on wheat (brown rust of wheat) (Puccrt P1); format: in vivo; settings: 250 ppm active compound, potted wheat seedlings sprayed to runoff, inoculated next day; untreated plants 90% infected
Description: The active compounds were prepared separately or jointly as a stock solution comprising 25 mg of active compound which was made up to 10 ml using a mixture of acetone and/or DMSO and the emulsifier Wettol EM 31 (wetting agent having emulsifying and dispersing action based on ethoxylated alkylphenols) in a volume ratio of solvent/emulsifier of 99:1. The mixture was then made up to 100 ml with water. This stock solution was diluted with the solvent/emulsifier/water mixture described to give the concentration of active compound stated below. Leaves of potted wheat seedlings were sprayed to runoff point with an aqueous suspension having the active compound concentration stated below. The next day, the treated plants were inoculated with a spore suspension of brown rust of wheat (Puccinia recondita). The plants were then placed in a chamber with high atmospheric humidity (90 to 95%) at 20 to 22° C. for 24 hours. During this time, the spores germinated and the germ tubes penetrated into the leaf tissue. The next day, the test plants were returned to the greenhouse and cultivated at temperatures between 20 and 22° C. and at 65 to 70% relative atmospheric humidity for a further 7 days. The extent of the rust fungus development on the leaves was then determined visually.

Pyrenophora teres = assay: Activity against net blotch of barley caused by Pyrenophora teres at 1 day protective application (Pyrnte P1); format: in vivo, Pyrenophora [syn. Drechslera] teres on barley; settings: 250 ppm active compound, potted barley seedlings sprayed to runoff, inoculated after 24 hours, assessed after 6 days; untreated plants 90% infected
Description: The active compounds were prepared separately or jointly as a stock solution comprising 25 mg of active compound which was made up to 10 ml using a mixture of acetone and/or DMSO and the emulsifier Wettol EM 31 (wetting agent having emulsifying and dispersing action based on ethoxylated alkylphenols) in a volume ratio of solvent/emulsifier of 99:1. The mixture was then made up to 100 ml with water. This stock solution was diluted with the solvent/emulsifier/water mixture described to give the concentration of active compound stated below. Leaves of potted barley seedlings were sprayed to runoff point with an aqueous suspension having the active compound concentration stated below. 24 hours after the spray coat had dried on, the test plants were inoculated with an aqueous spore suspension of Pyrenophora [syn. Drechslera] teres, the net blotch pathogen. The test plants were then placed in a greenhouse at temperatures between 20 and 24° C. and at 95 to 100% relative atmospheric humidity. After 6 days, the extent of the development of the disease was determined visually in % infection of the entire leaf area.

Structure (SMILES): Fc1ccc([C@@]2(Cn3cncn3)O[C@@H]2c2cc(Cl)sc2Cl)cc1 (racemic) [1-{[(2SR,3RS)-3-(2,5-dichlorothiophen-3-yl)-2-(4-fluorophenyl)oxiran-2-yl]methyl}-1H-1,2,4-triazole]
- infection (extent of rust fungus development on the leaves, determined visually) (Puccinia recondita): 0%
- infection (% infection of the entire leaf area, determined visually) (Pyrenophora teres): 15%
